From ChEMBL document CHEMBL4665648, “Potent and selective inhibitors of receptor-interacting protein kinase 1 that lack an aromatic back pocket group” (Bioorg Med Chem Lett, 2019)

Experiments:
[1] = target: Dual specificity protein kinase CLK4 (Homo sapiens) (UniProt Q9HAZ1); experiment: Inhibition of tracer 236 binding to recombinant human GST-tagged full length CLK4 expressed in baculovirus expression system at 10 uM incubated for 60 mins by Lanthascreen assay relative to control
[2] = target: Proto-oncogene tyrosine-protein kinase Src (Homo sapiens) (UniProt P12931); experiment: Inhibition of recombinant human C-terminal His-tagged full length SRC expressed in baculovirus expression system using Tyr 02 as substrate at 10 uM incubated for 60 mins by Z'-Lyte assay relative to control
[3] = target: Tyrosine-protein kinase ITK/TSK (Homo sapiens) (UniProt Q08881); experiment: Inhibition of recombinant human GST-tagged full length ITK expressed in baculovirus expression system using Tyr 04 as substrate at 10 uM incubated for 60 mins by Z'-lyte assay relative to control
Chain of Tyrosine-protein kinase ITK/TSK (Homo sapiens) (Q08881 whole entry): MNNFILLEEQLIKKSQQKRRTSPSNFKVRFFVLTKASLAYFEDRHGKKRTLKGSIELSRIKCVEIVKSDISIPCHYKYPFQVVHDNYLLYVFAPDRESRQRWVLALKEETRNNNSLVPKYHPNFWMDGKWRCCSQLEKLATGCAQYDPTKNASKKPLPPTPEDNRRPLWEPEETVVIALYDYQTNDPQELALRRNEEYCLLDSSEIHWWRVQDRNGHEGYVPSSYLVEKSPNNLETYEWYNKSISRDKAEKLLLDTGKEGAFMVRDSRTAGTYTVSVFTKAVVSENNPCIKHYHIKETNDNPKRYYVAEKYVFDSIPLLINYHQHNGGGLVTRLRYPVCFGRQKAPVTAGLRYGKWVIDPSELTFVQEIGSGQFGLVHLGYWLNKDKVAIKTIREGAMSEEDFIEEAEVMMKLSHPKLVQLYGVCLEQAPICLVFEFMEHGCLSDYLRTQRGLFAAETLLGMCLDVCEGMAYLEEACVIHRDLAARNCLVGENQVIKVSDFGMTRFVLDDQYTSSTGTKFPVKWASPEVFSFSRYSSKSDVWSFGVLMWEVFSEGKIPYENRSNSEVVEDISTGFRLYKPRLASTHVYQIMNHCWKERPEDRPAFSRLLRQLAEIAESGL

[4] = target: Aurora kinase B (Homo sapiens) (UniProt Q96GD4); experiment: Inhibition of recombinant human His-tagged full length Aurora B expressed in baculovirus expression system using Ser/Thr 01 as substrate at 10 uM incubated for 60 mins by Z'-Lyte assay relative to control
[5] = target: Calcium/calmodulin-dependent protein kinase type 1D (Homo sapiens) (UniProt Q8IU85); experiment: Inhibition of recombinant human His-tagged full length CAMK1delta expressed in baculovirus expression system using Ser/Thr 25 as substrate at 10 uM incubated for 60 mins by Z'-Lyte assay relative to control
Chain of Calcium/calmodulin-dependent protein kinase type 1D (Homo sapiens) (Q8IU85 whole entry, looked up, the tested form may be a part): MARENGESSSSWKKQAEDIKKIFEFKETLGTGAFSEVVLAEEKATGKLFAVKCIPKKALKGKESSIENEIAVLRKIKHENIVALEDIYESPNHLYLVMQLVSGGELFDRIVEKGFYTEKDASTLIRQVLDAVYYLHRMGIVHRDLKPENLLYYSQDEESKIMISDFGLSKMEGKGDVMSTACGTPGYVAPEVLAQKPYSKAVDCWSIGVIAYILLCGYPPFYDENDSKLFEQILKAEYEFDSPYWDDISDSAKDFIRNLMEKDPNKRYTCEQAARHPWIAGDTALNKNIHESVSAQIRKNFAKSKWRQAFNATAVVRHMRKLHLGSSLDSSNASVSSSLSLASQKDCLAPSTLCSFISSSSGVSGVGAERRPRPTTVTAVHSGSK

[6] = target: Non-receptor tyrosine-protein kinase TYK2 (Homo sapiens) (UniProt P29597); experiment: Inhibition of recombinant human N-terminal GST-tagged TYK2 (833 to 1187 residues) expressed in baculovirus expression system using Tyr 03 as substrate at 10 uM incubated for 60 mins by Z'-Lyte assay relative to control
Chain of Non-receptor tyrosine-protein kinase TYK2 (Homo sapiens) (P29597 whole entry, the tested form may be a part): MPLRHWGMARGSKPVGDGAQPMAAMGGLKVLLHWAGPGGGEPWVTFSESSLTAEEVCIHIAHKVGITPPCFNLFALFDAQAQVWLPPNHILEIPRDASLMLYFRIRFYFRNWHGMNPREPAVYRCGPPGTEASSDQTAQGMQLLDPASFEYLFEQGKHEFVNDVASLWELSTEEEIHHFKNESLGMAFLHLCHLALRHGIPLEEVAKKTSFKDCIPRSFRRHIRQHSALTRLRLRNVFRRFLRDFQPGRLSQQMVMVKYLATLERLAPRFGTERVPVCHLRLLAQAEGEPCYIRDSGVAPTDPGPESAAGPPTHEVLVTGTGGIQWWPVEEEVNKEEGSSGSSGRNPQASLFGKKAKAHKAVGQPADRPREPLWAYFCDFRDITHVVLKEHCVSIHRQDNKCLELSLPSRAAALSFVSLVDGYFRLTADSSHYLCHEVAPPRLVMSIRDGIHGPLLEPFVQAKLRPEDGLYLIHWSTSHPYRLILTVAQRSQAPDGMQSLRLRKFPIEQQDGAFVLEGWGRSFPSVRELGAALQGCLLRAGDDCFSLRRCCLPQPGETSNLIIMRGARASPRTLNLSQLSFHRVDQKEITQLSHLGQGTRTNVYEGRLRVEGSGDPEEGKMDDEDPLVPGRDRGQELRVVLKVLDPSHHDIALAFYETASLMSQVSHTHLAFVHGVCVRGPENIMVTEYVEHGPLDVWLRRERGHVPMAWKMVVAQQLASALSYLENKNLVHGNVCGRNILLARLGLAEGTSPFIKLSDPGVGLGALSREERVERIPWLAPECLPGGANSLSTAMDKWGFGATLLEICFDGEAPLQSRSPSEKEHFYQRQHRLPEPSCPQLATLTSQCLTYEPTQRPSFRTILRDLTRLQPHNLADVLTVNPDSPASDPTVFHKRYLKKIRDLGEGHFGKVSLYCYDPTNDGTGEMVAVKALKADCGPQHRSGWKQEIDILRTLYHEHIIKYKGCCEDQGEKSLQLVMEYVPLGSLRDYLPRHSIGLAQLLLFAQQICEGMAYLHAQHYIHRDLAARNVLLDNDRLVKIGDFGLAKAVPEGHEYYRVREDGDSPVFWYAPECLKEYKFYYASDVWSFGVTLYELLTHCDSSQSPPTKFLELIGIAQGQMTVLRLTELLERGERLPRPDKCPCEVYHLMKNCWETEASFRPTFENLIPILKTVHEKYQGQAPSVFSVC

[7] = target: Leukocyte tyrosine kinase receptor (Homo sapiens) (UniProt P29376); experiment: Inhibition of recombinant human GST-tagged LTK (450 to 864 residues) expressed in baculovirus expression system using Tyr 06 as substrate at 10 uM incubated for 60 mins by Z'-Lyte assay relative to control
[8] = target: Glycogen synthase kinase-3 alpha (Homo sapiens) (UniProt P49840); experiment: Inhibition of recombinant human GST-tagged full length GSK3alpha expressed in baculovirus expression system using Ser/Thr 09 as substrate at 10 uM incubated for 60 mins by Z'-Lyte assay relative to control
[9] = target: Mitogen-activated protein kinase 9 (Homo sapiens) (UniProt P45984); experiment: Inhibition of recombinant human His-tagged full length JNK2 expressed in baculovirus expression system using Ser/Thr 04 as substrate at 10 uM incubated for 60 mins by Z'-lyte assay relative to control
[10] = target: Serine/threonine-protein kinase 33 (Homo sapiens) (UniProt Q9BYT3); experiment: Inhibition of tracer 236 binding to recombinant human His-tagged full length STK33 expressed in baculovirus expression system at 10 uM incubated for 60 mins by Lanthascreen assay relative to control
[11] = target: BDNF/NT-3 growth factors receptor (Homo sapiens) (UniProt Q16620); experiment: Inhibition of recombinant human His-tagged TRKB (526 to 838 residues) expressed in baculovirus expression system using Tyr 01 as substrate at 10 uM incubated for 60 mins by Z'-Lyte assay relative to control
[12] = target: CDK2/Cyclin A2 (Homo sapiens) (UniProt P24941+P20248); experiment: Inhibition of recombinant human His-tagged full length CDK2/Cyclin A expressed in baculovirus expression system using Ser/Thr 12 as substrate at 10 uM incubated for 60 mins by Z'-Lyte assay relative to control
[13] = target: Serine/threonine-protein kinase mTOR (Homo sapiens) (UniProt P42345); experiment: Inhibition of recombinant human GST-tagged mTOR (1360 to 2549 residues) expressed in Escherichia coli expression system using Ser/Thr 11 as substrate at 10 uM incubated for 60 mins by Z'-Lyte assay relative to control
[14] = target: MAP kinase-interacting serine/threonine-protein kinase 1 (Homo sapiens) (UniProt Q9BUB5); experiment: Inhibition of recombinant human GST-tagged full length MKNK1 expressed in insect expression system using Ser/Thr 07 as substrate at 10 uM incubated for 60 mins by Z'-lyte assay relative to control
[15] = target: Activin receptor type-2B (Homo sapiens) (UniProt Q13705); experiment: Inhibition of tracer 178 binding to recombinant human GST-tagged ACVR2B (185 to 488 residues) expressed in baculovirus expression system at 10 uM incubated for 60 mins by Lanthascreen assay relative to control
[16] = target: Casein kinase II subunit alpha (Homo sapiens) (UniProt P68400); experiment: Inhibition of recombinant human His-tagged full length CK2alpha1 expressed in baculovirus expression system using Ser/Thr 1 as substrate at 10 uM incubated for 60 mins by Z'-Lyte assay relative to control
[17] = target: Mitogen-activated protein kinase kinase kinase 5 (Homo sapiens) (UniProt Q99683); experiment: Inhibition of tracer 236 binding to recombinant human GST-tagged full length ASK1 expressed in baculovirus expression system at 10 uM incubated for 60 mins by Lanthascreen assay relative to control
Chain of Mitogen-activated protein kinase kinase kinase 5 (Homo sapiens) (Q99683 whole entry): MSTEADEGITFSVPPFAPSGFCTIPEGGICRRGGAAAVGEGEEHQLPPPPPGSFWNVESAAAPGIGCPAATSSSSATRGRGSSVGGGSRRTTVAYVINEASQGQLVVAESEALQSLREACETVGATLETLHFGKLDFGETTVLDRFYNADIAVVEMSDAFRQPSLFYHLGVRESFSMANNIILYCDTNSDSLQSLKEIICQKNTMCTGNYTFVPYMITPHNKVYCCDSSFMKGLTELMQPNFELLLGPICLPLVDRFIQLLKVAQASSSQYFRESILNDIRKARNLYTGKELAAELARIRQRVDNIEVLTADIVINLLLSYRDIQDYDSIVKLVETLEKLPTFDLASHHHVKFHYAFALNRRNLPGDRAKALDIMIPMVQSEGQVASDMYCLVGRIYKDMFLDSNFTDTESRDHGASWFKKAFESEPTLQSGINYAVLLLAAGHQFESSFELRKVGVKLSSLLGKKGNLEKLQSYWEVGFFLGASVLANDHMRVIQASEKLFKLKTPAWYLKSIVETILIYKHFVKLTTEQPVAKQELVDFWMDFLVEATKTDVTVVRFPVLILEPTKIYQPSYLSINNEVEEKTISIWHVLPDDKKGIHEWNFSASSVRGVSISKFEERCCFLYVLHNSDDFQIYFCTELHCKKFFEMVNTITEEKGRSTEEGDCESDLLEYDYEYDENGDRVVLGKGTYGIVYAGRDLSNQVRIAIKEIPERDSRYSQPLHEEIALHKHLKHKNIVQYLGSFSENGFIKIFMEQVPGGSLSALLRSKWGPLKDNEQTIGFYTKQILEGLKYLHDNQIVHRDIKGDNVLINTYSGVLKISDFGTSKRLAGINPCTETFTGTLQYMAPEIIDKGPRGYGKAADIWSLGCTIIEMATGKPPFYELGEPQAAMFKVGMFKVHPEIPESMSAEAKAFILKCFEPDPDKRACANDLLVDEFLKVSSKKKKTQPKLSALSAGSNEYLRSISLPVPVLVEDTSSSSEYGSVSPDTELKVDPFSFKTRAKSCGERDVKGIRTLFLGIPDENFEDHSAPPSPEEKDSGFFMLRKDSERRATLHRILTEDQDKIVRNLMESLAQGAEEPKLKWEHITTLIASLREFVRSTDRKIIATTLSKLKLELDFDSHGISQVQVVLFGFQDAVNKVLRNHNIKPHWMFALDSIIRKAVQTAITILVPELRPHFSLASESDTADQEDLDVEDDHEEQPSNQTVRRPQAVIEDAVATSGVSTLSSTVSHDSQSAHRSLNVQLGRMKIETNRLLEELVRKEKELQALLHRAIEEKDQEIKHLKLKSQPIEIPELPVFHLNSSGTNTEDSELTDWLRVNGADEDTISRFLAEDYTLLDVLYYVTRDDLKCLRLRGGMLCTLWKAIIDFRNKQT

[18] = target: CDK9/cyclin T1 (Homo sapiens) (UniProt O60563+P50750); experiment: Inhibition of recombinant human His-tagged full length CDK9/Cyclin T1 expressed in baculovirus expression system using CDK7/9tide as substrate at 10 uM incubated for 60 mins by Adapta assay relative to control
[19] = target: Myosin light chain kinase, smooth muscle (Homo sapiens) (UniProt Q15746); experiment: Inhibition of tracer 236 binding to recombinant human GST-tagged MYLK (1428 to 1771 residues) expressed in baculovirus expression system at 10 uM incubated for 60 mins by Lanthascreen assay relative to control
[20] = target: G protein-coupled receptor kinase 6 (Homo sapiens) (UniProt P43250); experiment: Inhibition of recombinant human GST-tagged full length GRK6 expressed in baculovirus expression system using Ser/Thr 16 as substrate at 10 uM incubated for 60 mins by Z'-Lyte assay relative to control
[21] = target: Cyclin-dependent kinase 1/cyclin B1 (Homo sapiens) (UniProt P06493+P14635); experiment: Inhibition of recombinant human His-tagged full length CDK1/Cyclin B expressed in baculovirus expression system using Ser/Thr 18 as substrate at 10 uM incubated for 60 mins by Z'-Lyte assay relative to control
Chain of Cyclin-dependent kinase 1/cyclin B1 (Homo sapiens) (P06493 whole entry, looked up): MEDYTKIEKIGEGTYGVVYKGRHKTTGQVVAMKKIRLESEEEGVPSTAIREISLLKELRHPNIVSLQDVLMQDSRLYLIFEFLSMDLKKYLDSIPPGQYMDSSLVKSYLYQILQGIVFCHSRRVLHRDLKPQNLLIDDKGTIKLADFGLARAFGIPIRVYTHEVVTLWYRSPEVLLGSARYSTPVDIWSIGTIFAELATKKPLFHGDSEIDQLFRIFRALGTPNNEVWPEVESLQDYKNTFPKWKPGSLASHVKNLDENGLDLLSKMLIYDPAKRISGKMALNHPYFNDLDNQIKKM
Chain of Cyclin-dependent kinase 1/cyclin B1 (Homo sapiens) (P14635 whole entry, looked up): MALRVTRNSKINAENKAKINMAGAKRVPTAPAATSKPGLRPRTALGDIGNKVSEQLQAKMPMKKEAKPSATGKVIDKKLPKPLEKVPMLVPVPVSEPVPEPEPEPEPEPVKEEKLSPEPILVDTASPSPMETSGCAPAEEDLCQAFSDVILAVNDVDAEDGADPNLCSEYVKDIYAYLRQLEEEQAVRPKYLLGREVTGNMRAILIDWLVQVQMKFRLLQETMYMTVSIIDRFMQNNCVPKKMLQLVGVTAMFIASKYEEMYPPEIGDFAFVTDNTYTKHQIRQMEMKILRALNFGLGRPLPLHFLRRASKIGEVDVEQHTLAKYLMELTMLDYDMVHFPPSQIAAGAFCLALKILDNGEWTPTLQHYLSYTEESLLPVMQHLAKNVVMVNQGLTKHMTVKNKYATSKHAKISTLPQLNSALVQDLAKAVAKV

[22] = target: Dual specificity tyrosine-phosphorylation-regulated kinase 4 (Homo sapiens) (UniProt Q9NR20); experiment: Inhibition of recombinant human GST-tagged full length DYRK4 expressed in baculovirus expression system using Ser/Thr 9 as substrate at 10 uM incubated for 60 mins by Z'-Lyte assay relative to control
Chain of Dual specificity tyrosine-phosphorylation-regulated kinase 4 (Homo sapiens) (Q9NR20 whole entry, the tested form may be a part): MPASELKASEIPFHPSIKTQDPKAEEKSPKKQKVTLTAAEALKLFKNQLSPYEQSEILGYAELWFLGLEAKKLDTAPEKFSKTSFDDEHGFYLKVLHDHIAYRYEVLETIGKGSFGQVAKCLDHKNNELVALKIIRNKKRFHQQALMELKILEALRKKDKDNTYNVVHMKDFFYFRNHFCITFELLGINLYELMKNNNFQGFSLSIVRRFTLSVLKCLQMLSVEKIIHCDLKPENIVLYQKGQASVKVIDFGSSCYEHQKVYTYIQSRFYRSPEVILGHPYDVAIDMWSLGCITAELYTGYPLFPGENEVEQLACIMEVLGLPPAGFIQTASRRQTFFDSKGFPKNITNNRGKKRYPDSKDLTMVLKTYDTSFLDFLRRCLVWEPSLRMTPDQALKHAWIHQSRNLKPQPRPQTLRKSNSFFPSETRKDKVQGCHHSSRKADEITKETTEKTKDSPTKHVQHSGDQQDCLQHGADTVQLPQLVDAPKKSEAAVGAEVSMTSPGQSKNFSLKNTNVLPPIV

[23] = target: Activated CDC42 kinase 1 (Homo sapiens) (UniProt Q07912); experiment: Inhibition of tracer 236 binding to recombinant human GST-tagged TNK2 (110 to 476 residues) expressed in baculovirus expression system at 10 uM incubated for 60 mins by Lanthascreen assay relative to control
[24] = target: Tyrosine-protein kinase Srms (Homo sapiens) (UniProt Q9H3Y6); experiment: Inhibition of recombinant human GST-tagged full length SRM expressed in baculovirus expression system using Tyr 01 as substrate at 10 uM incubated for 60 mins by Z'-Lyte assay relative to control

Work on `CN1C(=O)[C@@H](NC(=O)c2n[nH]c3ncc(C(F)(F)C(F)(F)F)cc23)COc2ccccc21` yielded an inhibition [1] of 18%, an inhibition [2] of 2% and an inhibition [3] of -2%. It also gave an inhibition [4] of 2.5%, an inhibition [5] of 5% and an inhibition [6] of 5.5%. It also gave an inhibition [7] of 2%, an inhibition [8] of 9% and an inhibition [9] of 0.5%. The inhibition [10] was 1%, the inhibition [11] was 0.5% and the inhibition [12] was 13%. The inhibition [13] was 1.5%, the inhibition [14] was 7% and the inhibition [15] was -0.5%. The inhibition [16] was 4.5%, the inhibition [17] was 0.5% and the inhibition [18] was 6%. For the same molecule, the inhibition [19] was 7.5%, the inhibition [20] was -0.5% and the inhibition [21] was 3%. For the same molecule, the inhibition [22] was 4.5%, the inhibition [23] was 1.5% and the inhibition [24] was 2.5%.
